Data as given in the NIST ThermoML archive (doi:10.1016/j.tca.2016.09.005).

Experiment: xn = mol fraction of the nth substance listed
Details: 100 kPa, Liquid; for speed of sound: Frequency=3 MHz, Sing-around technique in a fixed-path interferometer; for mass density: Vibrating tube method

OCCCO [propan-1,3-diol] + CO
Details | mass density, 283.15 K [kg/m3] | mass density, 293.15 K [kg/m3] | speed of sound, 283.15 K [m/s] | speed of sound, 293.15 K [m/s]
x2 = 0 | 1058.85 | 1052.61 | 1659.5 | 1636.3
x2 = 0.05 | 1052.58 | 1046.29 | 1645.8 | 1622.5
x2 = 0.0996 | 1045.92 | 1039.56 | 1629.2 | 1605.8
x2 = 0.1503 | 1038.75 | 1032.32 | 1613.8 | 1590.1
x2 = 0.2 | 1031.38 | 1024.87 | 1596.8 | 1572.8
x2 = 0.2502 | 1023.44 | 1016.87 | 1578.8 | 1554.7
x2 = 0.2998 | 1015.08 | 1008.41 | 1560.7 | 1536.1
x2 = 0.3491 | 1006.18 | 999.42 | 1540.2 | 1515.4
x2 = 0.3998 | 996.52 | 989.65 | 1519.5 | 1494.2
x2 = 0.4497 | 986.31 | 979.34 | 1497 | 1471.6
x2 = 0.5 | 975.38 | 968.29 | 1474 | 1448
x2 = 0.5501 | 963.77 | 956.54 | 1450.2 | 1423.8
x2 = 0.5994 | 951.07 | 943.69 | 1423.3 | 1396.4
x2 = 0.6501 | 936.86 | 929.32 | 1394.9 | 1367.3
x2 = 0.6998 | 922.43 | 914.7 | 1366.9 | 1338.6
x2 = 0.7499 | 906.27 | 898.33 | 1336 | 1307.1
x2 = 0.8 | 889.44 | 881.29 | 1305 | 1275.3
x2 = 0.8501 | 869.9 | 861.5 | 1269.1 | 1238.8
x2 = 0.9 | 849.27 | 840.58 | 1233.7 | 1202.3
x2 = 0.9501 | 826.76 | 817.77 | 1196 | 1164
